≈ marks a conversion by molar mass, not a printed value. Where “and” joins values, the source holds several entries; their conditions need not be identical. Identical values can stand only once. A value given as a limit tells only on which side of the number the result lay.

Data set [1] in a line: Solubilities of o,o'-bridged oligophenylenes in laser solvents at 21° C. The settings on record: for Solubility: 21° C.; for Solubility compared with 2,2'-bifluorene: in solvents (Table I). It is filed as physicochemical. The source says:
It is further discovered that when substituent X of the bridged biphenyl moiety is a carbon atom which is free of benzylic hydrogens, the laser dye is relatively less reactive and relatively more soluble. In other words, it has been realized that the absence of benzylic hydrogens from the bridged carbon substituent, that is, the carbon substituent that is bonded directly to the phenyl moieties to form the bridge, renders the organic laser dyes of the present invention less reactive and more soluble. In view of the present disadvantages concerning the solubility of organic laser dyes available hitherto, this is quite significant.

Data set [2] is described as follows: Fluorescence emission spectrum and Fluorescence Quantum Efficiency. In kind it is physicochemical. The settings on record: for Fluorescence emission intensity, first peak / Fluorescence emission intensity, second peak / Fluorescence emission peak, first / Fluorescence emission peak, second: slits 2 nm. The source says: The fluorescence emission spectrum for the dye 9,9-dipropylfluorene as illustrated in FIG. 1 was detected on a Perkin-Elmer MPF-44A, the slits were set at 2 nm and the excitation light was at 265 nm. The Fluorescence Quantum Efficiency (FQE) was about the same as that of fluorene - 55%; and the fluorescence emission peaks at 306 nm(intensity 86) and […](intensity 67) were also similar to those of fluorene [the fluorescence emission spectrum for fluorene as illustrated in FIG. 5 was also detected on a Perkin-Elmer MPF-44A, the slits were set at 2 nm and the excitation light was at 265 nm and the fluorescence emission peaks for fluorene are at 303 nm(intensity 93) and 311 nm(intensity 73)].
This dye had two fluorescence peaks of almost equal intensity at 360 nm(intensity 33) and 378 nm(intensity 28) as illustrated in FIG. 2. […] The fluorescence emission spectrum of the dye 9,9,9',9'-tetrapropyl-2,2'-bifluorene was detected on a Perkin-Elmer MPF-44A, the slits were set at 2 nm and the excitation light was at 331 nm.
This dye had fluorescence peaks at 324 nm(intensity 90) and 338 nm(intensity 76) and a reported fluorescence quantum yield of 100% in cyclohexane as illustrated in FIG. 3. […] The fluorescence emission spectrum for the dye 3-phenyldibenzofuran as illustrated in FIG. 3 was detected on a Perkin-Elmer MPF-44A, the slits were set at 2 nm and the excitation light was at 301 nm.
The dye, 3,3'-bi(dibenzofuran), was prepared in accordance with the process disclosed in H.O. Wirth, G. Waese and W. Kern: Synthese Und Eigenschaften Von: Oxydo-p-oligophenylenen. Makromol. Chem. 86: 139(1965) which is incorporated herein in its entirety by reference, and was purified by extraction from Brockmann Activity I alumina with chloroform in an Ace-Kauffman column to give a white solid, mp 249.5°-250.5° C. (lit.mp 252.5° C.). This dye had two fluorescence peaks of almost equal intensity at 353 nm(intensity 47) and 369 nm(intensity 30) in cyclohexane as illustrated in FIG. 4.

For data set [3] the following is noted: cyclohexane; reported; cited from earlier work.

With `c1ccc2c(c1)oc1cc(-c3ccc4c(c3)oc3ccccc34)ccc12` [3,3'-bi(dibenzofuran)], the Solubility was 1.0 × 10^-2 M and 2.5 g/l in data set [1] (95% ethanol); 6.3 × 10^-5 M and 0.021 g/l in data set [1] (100% ethanol); 2.5 × 10^-3 M and 0.84 g/l in data set [1] (DMF); 2.1 × 10^-5 M and 0.007 g/l in data set [1] (Methanol); 2.4 × 10^-3 M and 0.8 g/l in data set [1] (Toluene); 9.0 × 10^-5 M and 0.030 g/l in data set [1] (cyclohexane). For the same compound, the Solubility in data set [1] (dioxane) is 1.3 × 10^-3 M and 0.43 g/l. In addition, the “Solubility compared with 2,2'-bifluorene” value in data set [1] is “greater than that of 2,2'-bifluorene”. Further, the “Fluorescence emission spectrum compared with dye of Example 2” value in data set [2] is given as “almost superimposable on that of the dye discussed in Example 2”. In addition, the “Fluorescence emission intensity, first peak” value in data set [2] (excitation 323 nm, cyclohexane) was 47. Moreover, in data set [2] (excitation 323 nm, cyclohexane), the “Fluorescence emission intensity, second peak” value is on record as 30. For the same compound, in data set [2] (excitation 323 nm, cyclohexane), the “Fluorescence emission peak, first” value is reported as 353 nm. For the same compound, the “Fluorescence emission peak, second” value in data set [2] (excitation 323 nm, cyclohexane) turned out to be 369 nm.
In the case of `CCn1c2ccccc2c2ccc(-c3ccc4c5ccccc5n(CC)c4c3)cc21` [9,9'-diethyl-2,2'-bicarbazole], the “Violet fluorescence compared with compounds of Examples 2 and 4” value in data set [2] (in alcohols) is “brighter violet fluorescence in alcohols than the compounds of Examples 2 and 4”.
For the compound `c1ccc(-c2ccc3c(c2)oc2ccccc23)cc1` [3-phenyldibenzofuran], the Solubility in data set [1] (50% ethanol) is 8.4 × 10^-3 M and 2.0 g/l; in data set [1] (95% ethanol), 1.1 × 10^-2 M and 2.7 g/l; in data set [1] (100% ethanol) it was 1.6 × 10^-2 M and 3.9 g/l; in data set [1] (Methanol) it was 1.2 × 10^-2 M and 2.9 g/l; in data set [1] (cyclohexane) it was > 2.44 g/l and > 1.0 × 10^-2 M. The “Solubility compared with p-terphenyl” value in data set [1] (in all cases (See Table I)) is listed as “much greater than that of p-terphenyl”; in data set [1] (methanol, 50% ethanol, 95% ethanol and absolute ethanol) it was “much more soluble”. Also, the “Fluorescence emission intensity, first peak” value in data set [2] (excitation 301 nm, cyclohexane) is 90. Moreover, in data set [2] (excitation 301 nm, cyclohexane), the “Fluorescence emission intensity, second peak” value was determined as 76. The “Fluorescence emission peak, first” value in data set [2] (excitation 301 nm, cyclohexane) was determined as 324 nm. The “Fluorescence emission peak, second” value in data set [2] (excitation 301 nm, cyclohexane) was found to be 338 nm. Further, the “FQE in methanol compared with cyclohexane” value in data set [2] (methanol) was “the same in methanol as in cyclohexane”. The Fluorescence quantum yield in data set [3] was 100%.
As for `c1ccc2c(c1)Cc1cc(-c3ccc4c(c3)Cc3ccccc3-4)ccc1-2` [2,2'-bifluorene], the Solubility in data set [1] (1,2-dichloroethane) was 1.0 × 10^-3 M and 0.33 g/l; in data set [1] (95% ethanol), 0.4 g/L (≈ 1210 µM); in data set [1] (100% ethanol) it was 2.3 × 10^-5 M and 0.0077 g/l; in data set [1] (Toluene), 1.3 × 10^-3 M and 0.4 g/l; in data set [1] (cyclohexane), 3.0 × 10^-5 M and 0.01 g/l.
Take `CCCC1(CCC)c2ccccc2-c2ccc(-c3ccc4c(c3)C(CCC)(CCC)c3ccccc3-4)cc21` [9,9,9',9'-tetrapropyl-2,2'-bifluorene]: in data set [1] (100% ethanol), the Solubility is 7.8 × 10^-4 M and 0.39 g/l. For the same compound, the Solubility in data set [1] (Methanol) was 3.4 × 10^-4 M and 0.17 g/l. In data set [1] (cyclohexane), the Solubility is 2.0 × 10^-2 M and 10 g/l. In data set [1] (dioxane), the Solubility is 6.5 × 10^-3 M and 3.2 g/l. In addition, in data set [1], the “Solubility compared with 2,2'-bifluorene” value is listed as “more soluble than 2,2'-bifluorene”. In data set [2] (excitation 331 nm), the “Fluorescence emission intensity, first peak” value is recorded as 33; the “Fluorescence emission intensity, second peak” value is reported as 28; the “Fluorescence emission peak, first” value is reported as 360 nm; the “Fluorescence emission peak, second” value is 378 nm.
Regarding `c1ccc(-c2ccc(-c3ccc(-c4ccccc4)cc3)cc2)cc1` [quaterphenyl, reference compound], the Solubility in data set [1] (Toluene) was ~1.3 × 10^-3 M and ~0.4 g/l.
With `c1ccc2c(c1)Cc1ccccc1-2` [fluorene, reference compound], the “Fluorescence Quantum Efficiency (FQE)” value in data set [2] is 55%. Besides, in data set [2] (excitation 265 nm), the “Fluorescence emission intensity, first peak” value was 93; the “Fluorescence emission intensity, second peak” value amounted to 73; the “Fluorescence emission peak, first” value came to 303 nm; the “Fluorescence emission peak, second” value was determined as 311 nm.
`CCCC1(CCC)c2ccccc2-c2ccccc21` [9,9-dipropylfluorene]: the “Fluorescence Quantum Efficiency (FQE)” value in data set [2] is roughly 55%. In data set [2] (excitation 265 nm), the “Fluorescence emission intensity, first peak” value came out at 86; the “Fluorescence emission intensity, second peak” value stood at 67; the “Fluorescence emission peak, first” value is given as 306 nm.

Values taken from patent publication US5037578A, “O,O'-bridged oligophenylene laser dyes and dyestuff lasers and method of lasing therewith” (Exciton Chemical Company, priority 1990, dated 1991).
